Assay results taken from patent US20250339567A1, “COMPOUNDS WITH IMPROVED PHARMACOKINETICS FOR IMAGING AND THERAPY OF CANCER” (priority 2019, published 2025).
Starred links: 1 amine or outer side, 2 acyl side, 3 side chain; linkers in the order of their positions; H or OH if unused. Non-standard residues stand in square brackets, D forms with d. Residues, ends and D or L forms follow the SMILES beside them. *: point of attachment. DOTA = O=C(O)CN1CCN(CC(=O)O)CCN(CC(=O)*)CCN(CC(=O)O)CC1; Sta = CC(C)C[C@H](N)[C@@H](O)CC(=O)O; Bta = N[C@@H](Cc1csc2ccccc12)C(=O)O; X1 = O=C(CN1CCC(N[*:1])CC1)[*:2]

Legend:
[1] = Plasma studies: metabolic stability in vitro in human plasma (radio RP-HPLC); assay type: in vitro ADME; settings: for remaining intact tracer in chromatogram: human, plasma, 2 h
Procedure, shortened: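 Radiotracer incubated in human or murine plasma at 37° C. immediately after labeling, for 72±2 h or 6±0.5 h. Proteins precipitated with ice-cold EtOH and MeCN and centrifuged. Supernatant analysed by radio RP-HPLC.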

PC-3 cells = assay: Internalization into PC-3 cells; assay type: cell-based; settings: c = 1 nM, 1 h, 37° C., corrected for non-specific binding (10^-3 M [natLu]RM2)
Description: For internalization studies, PC-3 cells are harvested 24±2 h before the experiment and seeded in 24-well plates (1.5×10^5 cells/well, 1 mL). Subsequent to the removal of the culture medium, the cells are washed once with 500 μL DMEM/F-12 (5% BSA) and left to equilibrate at 37° C. for at least 15 min in 200 μL DMEM/F-12 (5% BSA). […] Next, 25 μL of the ^125I/^177Lu-labeled GRPR ligand (10 nm) is added and the cells are incubated at 37° C. for 60 min.
The experiment is terminated by placing the 24-well plate on ice for 1 min and consecutive removal of the medium. Each well is rinsed with 300 μL ice-cold PBS and the fractions from these first two steps are combined, representing the amount of free radiolabeled reference. Removal of surface bound activity is accomplished by incubation of the cells with 300 μL of ice-cold Acid Wash solution (0.02 M NaOAc, pH=5.0) for 10 min at room temperature and rinsed again with 300 μL of ice-cold PBS. The internalized activity is determined by incubation of the cells in […] NaOH (1 M) and the combination with the fraction of a subsequent washing step with 300 μL NaOH (1 M).
Each experiment (control and blockade) is performed sixfold. Free, surface bound and internalized activity is quantified in a γ-counter. Data is corrected for non-specific internalization.

GRPR = molecular target: T1, GRPR (Homo sapiens, UniProt P30550); assay: Determination of GRPR affinity (IC50), competition with [D-3-[125I]I-Tyr6]MJ9 on PC-3 cells; assay type: binding
T1 construct: endogenous in cells; host or cells: PC-3 cells
Description: The reference ligand for IC50 studies ([D-3-[^125I]I-Tyr^6]MJ9) is prepared according to a previously published procedure. Briefly, 0.2 mg of [D-Tyr^6]MJ9 are dissolved in 20 μL Tracepur water and 280 μL TRIS buffer (25 mm TRIS HCl, 0.4 M NaCl, pH=7.9). After addition of the solution to a vial containing 150 μg Iodo-Gen® (1,3,4,6-Tetrachloro-3α,6α-diphenylglycouril, surface-bound), 5.0 μL (16 MBq) [^125I]Nal(74 TBq/mmol, 3.1 GBq/mL, 40 mM NaOH, Hartmann Analytic, Braunschweig, Germany) are added.
The GRPR-positive PC-3 cells are cultured in Dublecco modified Eagle medium/Nutrition Mixture F-12 with Glutamax-I (1:1) (Invitrigon), supplemented with 10% fetal calf serum and maintained at 37° C. in a humidified 5% CO2 atmosphere.
After removal of the culture medium, the cells are washed once with 500 μL of HBSS (Hank's balanced salt solution, Biochrom, Berlin, Germany, with addition of 1% bovine serum albumin (BSA)) and left in 200 μL HBSS (1% BSA) for 9 min at room temperature for equilibration. Next, 25 μL per well of solutions, containing either HBSS (1% BSA) as control or the respective ligand in increasing concentration (10^−10 M-10^−4 M in HBSS), are added with subsequent addition of 25 μL of [D-3-[^125I]I-Tyr^6]MJ9 (2.0 nM) in HBSS (1% BSA).
All experiments are performed in triplicate for each concentration. After 2 h incubation at room temperature, the experiment is terminated by removal of the medium and consecutive rinsing with 300 μL of HBSS. The media of both steps are combined in one fraction and represent the amount of free radiolabeled reference. Afterwards, the cells are lysed with 300 μL of 1 M NaOH for at least 15 min and united with the 300 μL NaOH of the following washing step. Quantification of bound and free radiolabeled reference is accomplished in a γ-counter.
IC50 determination for each ligand was repeated twice.

[2] = n-Octanol-PBS distribution coefficient, log D7.4; assay type: physicochemical; settings: n-octanol/PBS pH 7.4; for log D7.4 ± SD (n = 8): 177Lu-labeled ligand
Description: Approximately 1 MBq of the labeled tracer was dissolved in 1 mL of a 1:1 mixture (v/v) of phosphate buffered saline (PBS, pH=7.4) and n-octanol in an Eppendorf tube. After vigorous mixing of the suspension for 3 min at room temperature, the vial was centrifuged at 9000 rpm for 5 min (Biofuge 15, Heraus Sepatech, Osterode, Germany) and 200 μL aliquots of both layers were measured in a γ-counter. The experiment was repeated at least four times.

[3] = system: PC-3 tumor-bearing CB17-SCID mice; assay: Biodistribution in PC-3 tumor-bearing CB17-SCID mice; assay type: in vivo; settings: mouse, in vivo
Description: All animal experiments were conducted in accordance with general animal welfare regulations in Germany (German animal protection act, as amended on 18 May 2018, Art. 141 G v. 29.3.2017 | 626, approval no. ROB-55.2-2532.Vet_02-18-109) and the institutional guidelines for the care and use of animals. To establish tumor xenografts, PC-3 cells (5×10^6 cells per 200 μL) were suspended in a 1:1 mixture (v/v) of Dulbecco's modified eagle's medium/Ham's F-12 (DMEM/F-12) with Glutamax-I (1:1) and Cultrex® Basement Membrane Matrix Type 3 (Trevigen Inc., Gaithersburg, MD, USA) and inoculated subcutaneously onto the right shoulder of 6-10 weeks old female CB17-SCID mice (Charles River Laboratories International Inc., Sulzfeld, Germany). Mice were used for experiments when tumor volume was 125-500 mm^3 (2-3 weeks after inoculation).
Approximately 1-5 MBq ([…]) of the radiolabeled GRPR antagonists were injected into the tail vein of PC-3 tumor-bearing mice and sacrificed at 1, 4 or 24 h p.i. (n=4). Selected organs were removed, weighted and measured in a γ-counter (Perkin Elmer, Waltham, MA, USA).

[4] = IC50 [nM] ± SD (n = 3), ^177Lu-labeled, Table 1C, GRPR affinity

T1 sequence (P30550 whole entry): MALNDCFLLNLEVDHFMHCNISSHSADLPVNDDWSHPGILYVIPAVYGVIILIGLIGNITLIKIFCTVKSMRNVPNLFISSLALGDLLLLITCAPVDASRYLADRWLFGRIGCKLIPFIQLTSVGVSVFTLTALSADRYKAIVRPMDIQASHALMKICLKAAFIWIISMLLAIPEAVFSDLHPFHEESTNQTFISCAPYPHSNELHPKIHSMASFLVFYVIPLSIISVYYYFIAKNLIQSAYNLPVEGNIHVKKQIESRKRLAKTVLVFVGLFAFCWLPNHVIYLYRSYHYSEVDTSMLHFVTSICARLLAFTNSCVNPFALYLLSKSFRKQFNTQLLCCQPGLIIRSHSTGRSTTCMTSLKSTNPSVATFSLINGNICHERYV

| Amount of intact tracer after incubation in human plasma for 72 ± 2 h (n = 2) [1] | metabolite, first-eluting peak in chromatogram [1] [%] | metabolite, second peak in chromatogram [1] [%] | remaining intact tracer in chromatogram [1] [%] | IC50 (GRPR; [4]) [nM] | IC50 (GRPR; IC50 ± SD (n = 3), Table 3, [D-3-[125I]I-Tyr6]MJ9 (c = 0.2 nM), 2 h, r.t., HBSS + 1% BSA) [nM] | log D7.4 ± SD (n = 8) [2] | tumor-to-background ratios [3] | IC50 (GRPR; IC50 [nM] ± SD (n = 3), Table 5, non-labeled N4 ligands, [D-3-[125I]I-Tyr6]MJ9 (c = 0.2 nM), 2 h, r.t.) [nM] | log D7.4 (n = 6), ^99mTc-labeled ([2]; 99mTc-labeled) | SMILES | Specific internalization (mean ± SD, n = 6) (PC-3 cells) |
| --- | --- | --- | --- | --- | --- | --- | --- | --- | --- | --- | --- |
| 18.3 ± 2.3 | 79 | 8 | 12 | 4.6 ± 0.2 | 4.63 ± 0.23 | −1.81 ± 0.02 | – | – | – | CC(C)C[C@H](NC(=O)C[C@H](O)[C@H](CC(C)C)NC(=O)[C@H](Cc1c[nH]cn1)NC(=O)CNC(=O)[C@@H](NC(=O)[C@H](C)NC(=O)[C@H](Cc1csc2ccccc12)NC(=O)[C@H](CCC(N)=O)NC(=O)[C@@H](Cc1ccccc1)NC(=O)CN1CCC(NC(=O)CN2CCN(CC(=O)O)CCN(CC(=O)O)CCN(CC(=O)O)CC2)CC1)C(C)C)C(N)=O [DOTA-[Bta^8]MJ9] ({DOTA}-[X1][dF]Q[Bta]AVGH[Sta]L-NH2) | 2.26 ± 0.18 % of the used activity |
| 40.1 ± 1.4 | 30 | 8 | 56 | 19.7 ± 1.6 | – | −2.25 ± 0.06 | – | – | – | CC(C)C[C@H](NC(=O)C[C@H](O)[C@H](CC(C)C)NC(=O)[C@H](Cc1c[nH]cn1)NC(=O)CNC(=O)[C@@H](NC(=O)[C@H](C)NC(=O)[C@H](Cc1c[nH]c2ccccc12)NC(=O)[C@H](CCO)NC(=O)[C@@H](Cc1ccccc1)NC(=O)CN1CCC(NC(=O)CN2CCN(CC(=O)O)CCN(CC(=O)O)CCN(CC(=O)O)CC2)CC1)C(C)C)C(N)=O [DOTA-[Hse^7]MJ9] | 1.40 ± 0.16 % of the used activity |
| – | – | – | – | – | – | – | highest | 6.97 ± 1.84 | −1.26 ± 0.02 | CC(C)C[C@H](NC(=O)C[C@H](O)[C@H](CC(C)C)NC(=O)[C@H](Cc1c[nH]cn1)NC(=O)CNC(=O)[C@@H](NC(=O)[C@H](C)NC(=O)[C@H](Cc1c[nH]c2ccccc12)NC(=O)[C@H](CCO)NC(=O)[C@@H](Cc1ccccc1)NC(=O)CN1CCC(NC(=O)C(CNCCN)CNCCN)CC1)C(C)C)C(N)=O [N4-[Hse^7]MJ9] | – |
